Results from US9796704B2, “Substituted quinazolines as receptor-type kinase inhibitors” (Symphony Evolution, Inc., priority 2002, dated 2017).
pIC50: −log10 of the molar value.

Assays:
KDR = KDR (Homo sapiens (Human), UniProt P35968); test: KDR kinase inhibition, luciferase-coupled chemiluminescent assay (LCCA); details: read-out: KDR IC50
Description: (§1) Kinase activity and compound inhibition are investigated using one or more of the three assay formats described below. The ATP concentrations are selected near its Michaelis-Menten constant (KM) for each individual kinase. Dose-response experiments are performed at ten different inhibitor concentrations in a 384-well plate format. […] Typically H is close to unity.
(§2) In the LCCA assays, kinase activity is measured by the ATP consumption that is accurately measured by luciferase-coupled chemiluminescence. Greiner 384-well white clear bottom medium binding plates are used for LCCA. Briefly the kinase reaction is initiated by mixing compounds, ATP and kinases in a 20 μL volume. At the end of the kinase reaction, a 20 μL luciferase-luciferin mix is added and the chemiluminescent signal is read on a Wallac Victor^2 reader.

EGFR = EGFR (Homo sapiens (Human), UniProt P00533); test: EGFR kinase inhibition, luciferase-coupled chemiluminescent assay (LCCA); details: read-out: EGFR IC50
EphB4 = EphB4 (Homo sapiens (Human), UniProt P54760); test: EphB4 kinase inhibition, 33P phosphoryl transfer assay (radiometric); assay type: biochemical
EphA2 = EphA2 (Homo sapiens (Human), UniProt P29317); test: EphA2 kinase inhibition, luciferase-coupled chemiluminescent assay (LCCA); details: read-out: EphA2 IC50
Chain of EphA2 (P29317 598-890): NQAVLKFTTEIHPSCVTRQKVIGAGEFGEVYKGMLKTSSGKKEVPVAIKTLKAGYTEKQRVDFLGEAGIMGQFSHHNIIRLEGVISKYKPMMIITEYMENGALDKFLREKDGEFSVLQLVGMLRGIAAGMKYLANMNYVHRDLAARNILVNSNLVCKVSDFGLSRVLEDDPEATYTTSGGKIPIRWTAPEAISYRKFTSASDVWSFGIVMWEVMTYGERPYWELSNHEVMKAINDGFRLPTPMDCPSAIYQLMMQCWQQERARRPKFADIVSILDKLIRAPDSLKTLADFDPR
Description: as §1, §2

Chain of EGFR (P00533 672-1210): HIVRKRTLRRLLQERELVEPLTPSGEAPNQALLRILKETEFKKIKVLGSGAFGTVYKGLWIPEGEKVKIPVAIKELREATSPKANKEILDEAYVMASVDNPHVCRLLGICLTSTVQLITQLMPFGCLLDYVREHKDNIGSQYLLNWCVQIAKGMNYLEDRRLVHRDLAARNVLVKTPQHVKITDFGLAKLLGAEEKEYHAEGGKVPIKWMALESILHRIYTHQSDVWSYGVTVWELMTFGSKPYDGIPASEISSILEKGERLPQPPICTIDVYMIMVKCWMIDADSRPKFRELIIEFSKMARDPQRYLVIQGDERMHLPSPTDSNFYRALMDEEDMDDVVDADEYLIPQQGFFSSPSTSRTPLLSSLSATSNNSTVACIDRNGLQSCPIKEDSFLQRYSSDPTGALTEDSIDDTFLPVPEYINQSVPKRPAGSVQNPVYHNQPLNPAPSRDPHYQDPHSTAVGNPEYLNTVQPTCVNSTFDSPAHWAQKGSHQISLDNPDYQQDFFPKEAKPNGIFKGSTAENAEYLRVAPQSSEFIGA
Chain of EphB4 (P54760 605-890): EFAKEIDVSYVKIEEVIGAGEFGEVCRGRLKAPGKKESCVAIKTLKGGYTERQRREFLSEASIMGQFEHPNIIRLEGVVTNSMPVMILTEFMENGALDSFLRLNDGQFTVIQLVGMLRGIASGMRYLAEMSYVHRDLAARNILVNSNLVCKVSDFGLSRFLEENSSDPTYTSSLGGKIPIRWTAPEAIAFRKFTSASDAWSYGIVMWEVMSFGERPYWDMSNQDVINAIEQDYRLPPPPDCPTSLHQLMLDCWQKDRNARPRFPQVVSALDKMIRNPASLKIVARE
Chain of KDR (P35968 807-1356): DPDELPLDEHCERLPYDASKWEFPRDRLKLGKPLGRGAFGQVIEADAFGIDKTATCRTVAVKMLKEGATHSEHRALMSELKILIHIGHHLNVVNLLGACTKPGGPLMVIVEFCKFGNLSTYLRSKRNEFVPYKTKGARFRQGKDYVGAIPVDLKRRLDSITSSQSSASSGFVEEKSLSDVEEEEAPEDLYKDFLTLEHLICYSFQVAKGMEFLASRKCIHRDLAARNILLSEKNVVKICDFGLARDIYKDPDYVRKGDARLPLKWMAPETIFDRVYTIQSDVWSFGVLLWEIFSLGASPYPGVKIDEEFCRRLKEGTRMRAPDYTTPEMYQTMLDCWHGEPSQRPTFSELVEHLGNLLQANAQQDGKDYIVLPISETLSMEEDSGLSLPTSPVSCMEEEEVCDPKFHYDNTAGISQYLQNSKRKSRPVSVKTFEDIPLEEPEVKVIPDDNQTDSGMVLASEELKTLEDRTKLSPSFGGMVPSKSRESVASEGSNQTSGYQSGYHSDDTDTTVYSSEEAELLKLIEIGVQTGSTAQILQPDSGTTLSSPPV

SMILES	pIC50 (KDR)	pIC50 (EGFR)	pIC50 (EphB4)	pIC50 (EphA2)
CCN1CCCOC(COc2cc3ncnc(Nc4ccc(Cl)c(Cl)c4)c3cc2OC)C1 (centres unmarked) [Example 241, N-(3,4-dichlorophenyl)-7-{[(4-ethyl-1,4-oxazepan-2-yl)methyl]oxy}-6-(methyloxy)quinazolin-4-amine]		> 7.30	> 7.30	> 7.30
COc1cc2c(Nc3ccc(Cl)c(Cl)c3)ncnc2cc1OCc1csc([C@@H]2CSCN2)n1 [Example 248, N-(3,4-dichlorophenyl)-6-(methyloxy)-7-[({2-[(4S)-1,3-thiazolidin-4-yl]-1,3-thiazol-4-yl}methyl)oxy]quinazolin-4-amine]		> 7.30	6.00 to 7.30	6.00 to 7.30
COc1cc2c(Nc3ccc(Cl)c(Cl)c3)ncnc2cc1OCc1csc(C2CCCCN2)n1 (centres unmarked) [Example 249, N-(3,4-dichlorophenyl)-6-(methyloxy)-7-{[(2-piperidin-2-yl-1,3-thiazol-4-yl)methyl]oxy}quinazolin-4-amine]		> 7.30	6.00 to 7.30	6.00 to 7.30
CCN1CCCCC1c1nc(COc2cc3ncnc(Nc4ccc(Cl)c(Cl)c4)c3cc2OC)cs1 (centres unmarked) [Example 253, N-(3,4-dichlorophenyl)-7-({[2-(1-ethylpiperidin-2-yl)-1,3-thiazol-4-yl]methyl}oxy)-6-(methyloxy)quinazolin-4-amine]		> 7.30	4.70 to 6.00	4.70 to 6.00
CCN1CCCC(c2nc(COc3cc4ncnc(Nc5ccc(Cl)c(Cl)c5)c4cc3OC)cs2)C1 (centres unmarked) [Example 254, N-(3,4-dichlorophenyl)-7-({[2-(1-ethylpiperidin-3-yl)-1,3-thiazol-4-yl]methyl}oxy)-6-(methyloxy)quinazolin-4-amine]		> 7.30	6.00 to 7.30	4.70 to 6.00
COc1cc2c(Nc3ccc(Cl)c(Cl)c3)ncnc2cc1OCc1csc(N2CCNCC2)n1 [Example 262, N-(3,4-dichlorophenyl)-6-(methyloxy)-7-{[(2-piperazin-1-yl-1,3-thiazol-4-yl)methyl]oxy}quinazolin-4-amine]		> 7.30	6.00 to 7.30	4.70 to 6.00
CCN1CCCC1c1nc(COc2cc3ncnc(Nc4ccc(Cl)c(Cl)c4)c3cc2OC)no1 (centres unmarked) [Example 264, N-(3,4-dichlorophenyl)-7-({[5-(1-ethylpyrrolidin-2-yl)-1,2,4-oxadiazol-3-yl]methyl}oxy)-6-(methyloxy)quinazolin-4-amine]		> 7.30	6.00 to 7.30	4.70 to 6.00
COc1cc2c(Nc3ccc(Cl)c(Cl)c3)ncnc2cc1OCc1nc([C@@H]2CCCN2C)no1 [Example 265, N-(3,4-dichlorophenyl)-6-(methyloxy)-7-[({3-[(2S)-1-methylpyrrolidin-2-yl]-1,2,4-oxadiazol-5-yl}methyl)oxy]quinazolin-4-amine]		> 7.30	6.00 to 7.30	4.70 to 6.00
COc1cc2c(Nc3ccc(Cl)c(Cl)c3)ncnc2cc1OCc1csc([C@@H]2CCCN2C)n1 [Example 266, N-(3,4-dichlorophenyl)-6-(methyloxy)-7-[({2-[(2S)-1-methylpyrrolidin-2-yl]-1,3-thiazol-4-yl}methyl)oxy]quinazolin-4-amine]		> 7.30	6.00 to 7.30	4.70 to 6.00
COc1cc2c(Nc3ccc(Cl)c(Cl)c3)ncnc2cc1OCC1CN(C)CCN1C (centres unmarked) [Example 268, N-(3,4-dichlorophenyl)-7-{[(1,4-dimethylpiperazin-2-yl)methyl]oxy}-6-(methyloxy)quinazolin-4-amine]		> 7.30	6.00 to 7.30	4.70 to 6.00
COc1cc2c(Nc3ccc(Cl)c(Cl)c3)ncnc2cc1OCC1CN(C(C)C)CCO1 (centres unmarked) [Example 270, N-(3,4-dichlorophenyl)-7-({[4-(1-methylethyl)morpholin-2-yl]methyl}oxy)-6-(methyloxy)quinazolin-4-amine]		> 7.30	6.00 to 7.30	4.70 to 6.00
COCCN1CCOC(COc2cc3ncnc(Nc4ccc(Cl)c(Cl)c4)c3cc2OC)C1 (centres unmarked) [Example 272, N-(3,4-dichlorophenyl)-6-(methyloxy)-7-[({4-[2-(methyloxy)ethyl]morpholin-2-yl}methyl)oxy]quinazolin-4-amine]		> 7.30	6.00 to 7.30	4.70 to 6.00
CCOC(=O)C(C)N1CCOC(COc2cc3ncnc(Nc4ccc(Cl)c(Cl)c4)c3cc2OC)C1 (centres unmarked) [Example 273, ethyl 2-[2-({[4-[(3,4-dichlorophenyl)amino]-6-(methyloxy)quinazolin-7-yl]oxy}methyl)morpholin-4-yl]propanoate]		> 7.30	4.70 to 6.00	4.70 to 6.00
COc1cc2c(Nc3ccc(Cl)c(Cl)c3)ncnc2cc1OCC1CN(CCOCCO)CCO1 (centres unmarked) [Example 275, 2-({2-[2-({[4-[(3,4-dichlorophenyl)amino]-6-(methyloxy)quinazolin-7-yl]oxy}methyl)morpholin-4-yl]ethyl}oxy)ethanol]		> 7.30	4.70 to 6.00	4.70 to 6.00
COc1cc2c(Nc3ccc(Cl)c(Cl)c3)ncnc2cc1OCC1CN(CCCCCC#N)CCO1 (centres unmarked) [Example 277, 6-[2-({[4-[(3,4-dichlorophenyl)amino]-6-(methyloxy)quinazolin-7-yl]oxy}methyl)morpholin-4-yl]hexanenitrile]		> 7.30	6.00 to 7.30	4.70 to 6.00

Other lines, results leading:

pIC50 (KDR)	pIC50 (EGFR)	pIC50 (EphB4)	pIC50 (EphA2)	SMILES
> 7.30				COc1cc2c(Nc3ccc(Br)c(Cl)c3)ncnc2cc1O[C@H]1CO[C@H]2[C@@H]1OC[C@@H]2OC [Example 73, 1,4:3,6-dianhydro-2-O-[4-[(4-bromo-3-chlorophenyl)amino]-6-(methyloxy)quinazolin-7-yl]-5-O-methyl-L-iditol]
> 7.30				COc1cc2c(Nc3ccc(Br)c(Cl)c3)ncnc2cc1O[C@H]1CO[C@H]2[C@@H]1OC[C@H]2OC [Example 78, 1,4:3,6-dianhydro-2-O-[4-[(4-bromo-3-chlorophenyl)amino]-6-(methyloxy)quinazolin-7-yl]-5-O-methyl-D-glucitol]
> 7.30	> 7.30			COc1cc2c(Nc3c(F)cccc3F)ncnc2cc1O[C@@H]1CO[C@@H]2[C@H]1OC[C@H]2F [Example 87, 1,4:3,6-dianhydro-2-deoxy-5-O-[4-[(2,6-difluorophenyl)amino]-6-(methyloxy)quinazolin-7-yl]-2-fluoro-D-iditol]
> 7.30	> 7.30			COc1cc2c(Nc3ccc(F)cc3F)ncnc2cc1O[C@@H]1CO[C@@H]2[C@H]1OC[C@H]2F [Example 90, 1,4:3,6-dianhydro-2-deoxy-5-O-[4-[(2,4-difluorophenyl)amino]-6-(methyloxy)quinazolin-7-yl]-2-fluoro-D-iditol]
> 7.30	> 7.30			COc1cc2c(Nc3ccc(Cl)cc3F)ncnc2cc1O[C@@H]1CO[C@@H]2[C@H]1OC[C@H]2F [Example 109, 1,4:3,6-dianhydro-5-O-[4-[(4-chloro-2-fluorophenyl)amino]-6-(methyloxy)quinazolin-7-yl]-2-deoxy-2-fluoro-D-iditol]
	> 7.30	> 7.30	> 7.30	COc1cc2c(Nc3ccc(Cl)c(Cl)c3)ncnc2cc1OCc1csc(CO)n1 [Example 246, [4-({[4-[(3,4-dichlorophenyl)amino]-6-(methyloxy)quinazolin-7-yl]oxy}methyl)-1,3-thiazol-2-yl]methanol]
	> 7.30	6.00 to 7.30	6.00 to 7.30	COc1cc2c(Nc3ccc(Cl)c(Cl)c3)ncnc2cc1OCc1csc(C2CCCCN2C)n1 (centres unmarked) [Example 250, N-(3,4-dichlorophenyl)-6-(methyloxy)-7-({[2-(1-methylpiperidin-2-yl)-1,3-thiazol-4-yl]methyl}oxy)quinazolin-4-amine]
	> 7.30	6.00 to 7.30	4.70 to 6.00	COc1cc2c(Nc3ccc(Cl)c(Cl)c3)ncnc2cc1OCc1csc(C2CCCNC2)n1 (centres unmarked) [Example 251, N-(3,4-dichlorophenyl)-6-(methyloxy)-7-{[(2-piperidin-3-yl-1,3-thiazol-4-yl)methyl]oxy}quinazolin-4-amine]
	> 7.30	6.00 to 7.30	4.70 to 6.00	COCCN1CCCOC(COc2cc3ncnc(Nc4ccc(Cl)c(Cl)c4)c3cc2OC)C1 (centres unmarked) [Example 260, N-(3,4-dichlorophenyl)-6-(methyloxy)-7-[({4-[2-(methyloxy)ethyl]-1,4-oxazepan-2-yl}methyl)oxy]quinazolin-4-amine]
	> 7.30	6.00 to 7.30	4.70 to 6.00	COc1cc2c(Nc3ccc(Cl)c(Cl)c3)ncnc2cc1OCC1CN(C(C)C)CCCO1 (centres unmarked) [Example 261, N-(3,4-dichlorophenyl)-7-({[4-(1-methylethyl)-1,4-oxazepan-2-yl]methyl}oxy)-6-(methyloxy)quinazolin-4-amine]
	> 7.30	6.00 to 7.30	4.70 to 6.00	COc1cc2c(Nc3ccc(Cl)c(Cl)c3)ncnc2cc1OCc1noc(C2CCCN2)n1 (centres unmarked) [Example 263, N-(3,4-dichlorophenyl)-6-(methyloxy)-7-{[(5-pyrrolidin-2-yl-1,2,4-oxadiazol-3-yl)methyl]oxy}quinazolin-4-amine]
	> 7.30	4.70 to 6.00	4.70 to 6.00	CCN1CCN(c2nc(COc3cc4ncnc(Nc5ccc(Cl)c(Cl)c5)c4cc3OC)cs2)CC1 [Example 267, N-(3,4-dichlorophenyl)-7-({[2-(4-ethylpiperazin-1-yl)-1,3-thiazol-4-yl]methyl}oxy)-6-(methyloxy)quinazolin-4-amine]
	> 7.30	6.00 to 7.30	4.70 to 6.00	COc1cc2c(Nc3ccc(Cl)c(Cl)c3)ncnc2cc1OCC1CN(CCCc2ccccc2)CCO1 (centres unmarked) [Example 271, N-(3,4-dichlorophenyl)-6-(methyloxy)-7-({[4-(3-phenylpropyl)morpholin-2-yl]methyl}oxy)quinazolin-4-amine]
